Laboratory results as given in patent publication US9376425B2, “Heterocyclic compounds as MDM2 inhibitors for the treatment of cancer” (AMGEN INC., priority 2011, dated 2016).

Target: T1, human MDM2 (GST-hMDM2 1-188), interaction with biotinylated-p53 (1-83) (Homo sapiens, UniProt Q00987)
T1 construct: Amino acid residues 1-188 of human MDM2 were expressed; made in house; host or cells: Escherichia coli
Experiment: improved HTRF assay (HTRF2 assay), inhibition of HDM2-p53 interaction
Assay type: binding
Settings: 0.2 nM GST-hMDM2, 0.5 nM biotinylated-p53, 100 mM KF
Method in brief: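 Time-resolved fluorescence (HTRF) read after >4 h equilibration with SA-XLent/anti-GST cryptate/KF detection reagents. Reaction: compound plus GST-hMDM2 for 20 min at room temperature, then E. coli-expressed biotinylated p53 residues 1-83 for 60 min, 2% DMSO final. Inhibition expressed versus nutlin-3.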

T1 sequence (Q00987 1-188): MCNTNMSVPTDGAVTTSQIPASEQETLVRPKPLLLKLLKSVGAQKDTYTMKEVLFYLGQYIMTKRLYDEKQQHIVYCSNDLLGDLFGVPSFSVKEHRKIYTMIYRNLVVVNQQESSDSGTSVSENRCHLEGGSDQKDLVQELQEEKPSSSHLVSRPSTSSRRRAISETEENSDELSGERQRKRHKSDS

Compound CC[C@@H](CS(=O)(=O)C(C)(C)C)N1C(=O)[C@@H](CC(=O)CO)O[C@H](c2cccc(Cl)c2)[C@H]1c1ccc(Cl)cc1 (single isomer, unassigned) [Example 245, (2R,5R,6R)-4-((S)-1-(tert-butylsulfonyl)butan-2-yl)-6-(3-chlorophenyl)-5-(4-chlorophenyl)-2-(3-hydroxy-2-oxopropyl)morpholin-3-one or (2S,5R,6R)-4-((S)-1-(tert-butylsulfonyl)butan-2-yl)-6-(3-chlorophenyl)-5-(4-chlorophenyl)-2-(3-hydroxy-2-oxopropyl)morpholin-3-one] has an IC50 of 9 nM.
CC[C@@H](CS(=O)(=O)CCN(C)C)N1C(=O)[C@@H](CC(=O)O)O[C@H](c2cccc(Cl)c2)[C@H]1c1ccc(Cl)cc1 (single isomer, unassigned) [Example 247, 2-((2R,5R,6R)-6-(3-chlorophenyl)-5-(4-chlorophenyl)-4-((S)-1-((2-(dimethylamino)ethyl)sulfonyl)butan-2-yl)-3-oxomorpholin-2-yl)acetic acid or 2-((2S,5R,6R)-6-(3-chlorophenyl)-5-(4-chlorophenyl)-4-((S)-1-((2-(dimethylamino)ethyl)sulfonyl)butan-2-yl)-3-oxomorpholin-2-yl)acetic acid] was tested, and the IC50 was 3 nM.
For CC[C@@H](CS(=O)(=O)CCN(C)C)N1C(=O)[C@H](CC(=O)O)O[C@H](c2cccc(Cl)c2)[C@H]1c1ccc(Cl)cc1 (single isomer, unassigned) [Example 248, 2-((2S,5R,6R)-6-(3-chlorophenyl)-5-(4-chlorophenyl)-4-((S)-1-((2-(dimethylamino)ethyl)sulfonyl)butan-2-yl)-3-oxomorpholin-2-yl)acetic acid or 2-((2R,5R,6R)-6-(3-chlorophenyl)-5-(4-chlorophenyl)-4-((S)-1-((2-(dimethylamino)ethyl)sulfonyl)butan-2-yl)-3-oxomorpholin-2-yl)acetic acid], the IC50 was 8 nM.
With O=C(O)C[C@H]1OC(c2cccc(Cl)c2)C(c2ccc(Cl)cc2)N([C@H](CN(c2c(F)cccc2F)S(=O)(=O)C2CC2)C2CC2)C1=O (single isomer, unassigned) [Example 250] the IC50 was < 1 nM.
O=C(O)C[C@H]1O[C@H](c2cccc(Cl)c2)[C@@H](c2ccc(Cl)cc2)N([C@H](CN(c2c(F)cccc2F)S(=O)(=O)C2CC2)C2CC2)C1=O (single isomer, unassigned) [Example 251, 2-((2R,5R,6R)-6-(3-chlorophenyl)-5-(4-chlorophenyl)-4-((S)-1-cyclopropyl-2-(N-(2,6-difluorophenyl)cyclopropanesulfonamido)ethyl)-3-oxomorpholin-2-yl)acetic acid or 2-((2S,5R,6R)-6-(3-chlorophenyl)-5-(4-chlorophenyl)-4-((S)-1-cyclopropyl-2-(N-(2,6-difluorophenyl)cyclopropanesulfonamido)ethyl)-3-oxomorpholin-2-yl)acetic acid] was tested, and the IC50 was < 1 nM.
Compound CC[C@@H](CN(c1ccccc1F)S(=O)(=O)C1CC1)N1C(=O)[C@@H]([C@@H](C)C(=O)O)O[C@H](c2cccc(Cl)c2)[C@H]1c1ccc(Cl)cc1 (single isomer, unassigned) [Example 252] has an IC50 of 1 nM.
For CC[C@@H](CN(c1ccccc1F)S(=O)(=O)C1CC1)N1C(=O)[C@@H]([C@@H](C)C(=O)O)O[C@H](c2cccc(Cl)c2)[C@H]1c1ccc(Cl)cc1 (single isomer, unassigned) [Example 253], the IC50 was 18 nM.
CC[C@@H](CN(c1ccccc1F)S(=O)(=O)C1CC1)N1C(=O)[C@@H]([C@@H](C)C(=O)O)O[C@H](c2cccc(Cl)c2)[C@H]1c1ccc(Cl)cc1 (single isomer, unassigned) [Example 254] showed an IC50 of 1 nM.
CC[C@@H](CN(c1ccccc1F)S(=O)(=O)C1CC1)N1C(=O)[C@@H]([C@@H](C)C(=O)O)O[C@H](c2cccc(Cl)c2)[C@H]1c1ccc(Cl)cc1 (single isomer, unassigned) [Example 255] showed an IC50 of 4 nM.
With NC(=O)C[C@@H]1O[C@H](c2cccc(Cl)c2)[C@@H](c2ccc(Cl)cc2)N([C@H](CN(c2ccccc2F)S(=O)(=O)C2CC2)C2CC2)C1=O (single isomer, unassigned) [Example 256, 2-((2S,5R,6R)-6-(3-chlorophenyl)-5-(4-chlorophenyl)-4-((S)-1-cyclopropyl-2-(N-(2-fluorophenyl)cyclopropanesulfonamido)ethyl)-3-oxomorpholin-2-yl)acetamide or 2-((2R,5R,6R)-6-(3-chlorophenyl)-5-(4-chlorophenyl)-4-((S)-1-cyclopropyl-2-(N-(2-fluorophenyl)cyclopropanesulfonamido)ethyl)-3-oxomorpholin-2-yl)acetamide] the IC50 was < 1 nM.
NC(=O)C[C@H]1O[C@H](c2cccc(Cl)c2)[C@@H](c2ccc(Cl)cc2)N([C@H](CN(c2ccccc2F)S(=O)(=O)C2CC2)C2CC2)C1=O (single isomer, unassigned) [Example 257, 2-((2R,5R,6R)-6-(3-chlorophenyl)-5-(4-chlorophenyl)-4-((S)-1-cyclopropyl-2-(N-(2-fluorophenyl)cyclopropanesulfonamido)ethyl)-3-oxomorpholin-2-yl)acetamide or 2-((2S,5R,6R)-6-(3-chlorophenyl)-5-(4-chlorophenyl)-4-((S)-1-cyclopropyl-2-(N-(2-fluorophenyl)cyclopropanesulfonamido)ethyl)-3-oxomorpholin-2-yl)acetamide] was tested, and the IC50 was < 1 nM.
Compound CC[C@@H](CN(c1ccccc1F)S(=O)(=O)C1CC1)N1C(=O)[C@H](CC(=O)NS(=O)(=O)C(C)C)O[C@H](c2cccc(Cl)c2)[C@H]1c1ccc(Cl)cc1 (single isomer, unassigned) [Example 258, 2-((2S,5R,6R)-6-(3-chlorophenyl)-5-(4-chlorophenyl)-4-((S)-1-(N-(2-fluorophenyl)cyclopropanesulfonamido)butan-2-yl)-3-oxomorpholin-2-yl)-N-(isopropylsulfonyl)acetamide or 2-((2R,5R,6R)-6-(3-chlorophenyl)-5-(4-chlorophenyl)-4-((5)-1-(N-(2-fluorophenyl)cyclopropanesulfonamido)butan-2-yl)-3-oxomorpholin-2-yl)-N-(isopropylsulfonyl)acetamide] has an IC50 of 1 nM.
CC[C@@H](CN(c1ccccc1F)S(=O)(=O)C1CC1)N1C(=O)[C@@H](CC(=O)NS(=O)(=O)C(C)C)O[C@H](c2cccc(Cl)c2)[C@H]1c1ccc(Cl)cc1 (single isomer, unassigned) [Example 259, 2-((2R,5R,6R)-6-(3-chlorophenyl)-5-(4-chlorophenyl)-4-((S)-1-(N-(2-fluorophenyl)cyclopropanesulfonamido)butan-2-yl)-3-oxomorpholin-2-yl)-N-(isopropylsulfonyl)acetamide or 2-((2S,5R,6R)-6-(3-chlorophenyl)-5-(4-chlorophenyl)-4-((S)-1-(N-(2-fluorophenyl)cyclopropanesulfonamido)butan-2-yl)-3-oxomorpholin-2-yl)-N-(isopropylsulfonyl)acetamide] gave an IC50 of 1 nM.
Work on CC[C@@H](CS(=O)(=O)C(C)(C)C)N1C(=O)[C@H](CC(N)=O)O[C@H](c2cccc(Cl)c2)[C@H]1c1ccc(Cl)cc1 (single isomer, unassigned) [Example 260, 2-((2S,5R,6R)-4-((S)-1-(tert-butylsulfonyl)butan-2-yl)-6-(3-chlorophenyl)-5-(4-chlorophenyl)-3-oxomorpholin-2-yl)acetamide or 2-((2R,5R,6R)-4-((S)-1-(tert-butylsulfonyl)butan-2-yl)-6-(3-chlorophenyl)-5-(4-chlorophenyl)-3-oxomorpholin-2-yl)] yielded an IC50 of 8 nM.
